17 compounds from patent US20240092790A1, “DIHYDROFUROPYRIDINE DERIVATIVES AS RHO- KINASE INHIBITORS” (CHIESI FARMACEUTICI S.P.A., priority 2020, published 2024) can be followed below.

pKi: −log10 of the molar value. Bounds are passed on as bounds.

Holding throughout (type): biochemical
The target in one experiment is ROCK1 (Homo sapiens, UniProt Q13464). Put plainly: In vitro inhibitory activity assay ROCK1 (ADP-Glo). The conditions noted are these: ATP 200 μM, Cheng-Prusoff; read-out: ROCK 1 (Ki, range of activity). Here is the method:
(§1) In Vitro Inhibitory Activity Assay Description ROCK1 and ROCK2
(§2) The effectiveness of compounds of the present invention to inhibit Rho kinase activity can be determined in a 10 μl assay containing 40 mM Tris pH7.5, 20 mM MgCl2 0.1 mg/mL BSA, 50 μM DTT and 2.5 μM peptide substrate (Myelin Basic Protein) using an ADP-Glo kit (Promega). Compounds were dissolved in DMSO such that the final concentration of DMSO was 1% in the assay. All reactions/incubations are performed at 25° C. Compound (2 ul) and either Rho kinase 1 or 2 (4 μl) were mixed and incubated for 30 mins. Reactions were initiated by addition of ATP (4 μl) such that the final concentration of ATP in the assay was 200 μM. After a 1 hour incubation 10 μl of ADP-Glo Reagent was added and after a further 1 hour incubation 20 ul of Kinase Detection Buffer was added and the mixture incubated for a further 45 minutes. The luminescent signal was measured on a luminometer. […] Compounds were tested in dose-response format and the inhibition of kinase activity was calculated at each concentration of compound. To determine the IC50 (concentration of compound required to inhibit 50% of the enzyme activity) data were fit to a plot of % inhibition vs Log 10 compound concentration using a sigmoidal fit with a variable slope and fixing the maximum to 100% and the minimum to 0%. To determine the Ki values the Cheng-Prusoff equation was utilized (Ki=IC50/(1+[S]/Km).
Background: ADP-Glo first removes unused ATP, then detects ADP through luciferase.

For the next experiment, the target named is ROCK2 (Homo sapiens, UniProt O75116). Put plainly: In vitro inhibitory activity assay ROCK2 (ADP-Glo). The note with it: ATP 200 μM, Cheng-Prusoff; read-out: ROCK2 (Ki, range of activity). Here is the method:
as §1, §2

The next experiment has as its target PKA (Homo sapiens, UniProt P17612). Put plainly: In vitro inhibitory activity assay for PKA (ADP-Glo), reported as selectivity ratio vs ROCK2. The note with it: Ki value for PKA divided by Ki value of ROCK2. Here is the method:
In Vitro Inhibitory Activity Assay Description for PKA
The effectiveness of compounds of the present invention to inhibit PKA activity can be determined in a 10 μl assay containing 40 mM Tris pH7.5, 20 mM MgCl2 0.1 mg/ml BSA, 50 μM DTT and 260 μM peptide substrate (kemptide) using an ADP-Glo kit (Promega). Compounds were dissolved in DMSO such that the final concentration of DMSO was 1% in the assay. All reactions/incubations are performed at 25° C. Compound and PKA enzyme (6 μl) were mixed and incubated for 30 mins. Reactions were initiated by addition of ATP (4 μl) such that the final concentration of ATP in the assay was 10 μM. After a 30 minute incubation 10p of ADP-Glo Reagent was added and after a further 1 hour incubation 20 μl of Kinase Detection Buffer was added and the mixture incubated for a further 45 minutes. The luminescent signal was measured on a luminometer. […] Compounds were tested in dose-response format and the inhibition of kinase activity was calculated at each concentration of compound. To determine the IC50 (concentration of compound required to inhibit 50% of the enzyme activity) data were fit to a plot of % inhibition vs Log10 compound concentration using a sigmoidal fit with a variable slope and fixing the maximum to 100% and the minimum to 0%. To determine the Ki values the Cheng-Prusoff equation was utilized (Ki=IC50/(1+[S]/Km).
In vitro inhibitory activities for PKA were reported as selectivity ratio vs. ROCK-2.

ROCK2, sequence (O75116 whole entry): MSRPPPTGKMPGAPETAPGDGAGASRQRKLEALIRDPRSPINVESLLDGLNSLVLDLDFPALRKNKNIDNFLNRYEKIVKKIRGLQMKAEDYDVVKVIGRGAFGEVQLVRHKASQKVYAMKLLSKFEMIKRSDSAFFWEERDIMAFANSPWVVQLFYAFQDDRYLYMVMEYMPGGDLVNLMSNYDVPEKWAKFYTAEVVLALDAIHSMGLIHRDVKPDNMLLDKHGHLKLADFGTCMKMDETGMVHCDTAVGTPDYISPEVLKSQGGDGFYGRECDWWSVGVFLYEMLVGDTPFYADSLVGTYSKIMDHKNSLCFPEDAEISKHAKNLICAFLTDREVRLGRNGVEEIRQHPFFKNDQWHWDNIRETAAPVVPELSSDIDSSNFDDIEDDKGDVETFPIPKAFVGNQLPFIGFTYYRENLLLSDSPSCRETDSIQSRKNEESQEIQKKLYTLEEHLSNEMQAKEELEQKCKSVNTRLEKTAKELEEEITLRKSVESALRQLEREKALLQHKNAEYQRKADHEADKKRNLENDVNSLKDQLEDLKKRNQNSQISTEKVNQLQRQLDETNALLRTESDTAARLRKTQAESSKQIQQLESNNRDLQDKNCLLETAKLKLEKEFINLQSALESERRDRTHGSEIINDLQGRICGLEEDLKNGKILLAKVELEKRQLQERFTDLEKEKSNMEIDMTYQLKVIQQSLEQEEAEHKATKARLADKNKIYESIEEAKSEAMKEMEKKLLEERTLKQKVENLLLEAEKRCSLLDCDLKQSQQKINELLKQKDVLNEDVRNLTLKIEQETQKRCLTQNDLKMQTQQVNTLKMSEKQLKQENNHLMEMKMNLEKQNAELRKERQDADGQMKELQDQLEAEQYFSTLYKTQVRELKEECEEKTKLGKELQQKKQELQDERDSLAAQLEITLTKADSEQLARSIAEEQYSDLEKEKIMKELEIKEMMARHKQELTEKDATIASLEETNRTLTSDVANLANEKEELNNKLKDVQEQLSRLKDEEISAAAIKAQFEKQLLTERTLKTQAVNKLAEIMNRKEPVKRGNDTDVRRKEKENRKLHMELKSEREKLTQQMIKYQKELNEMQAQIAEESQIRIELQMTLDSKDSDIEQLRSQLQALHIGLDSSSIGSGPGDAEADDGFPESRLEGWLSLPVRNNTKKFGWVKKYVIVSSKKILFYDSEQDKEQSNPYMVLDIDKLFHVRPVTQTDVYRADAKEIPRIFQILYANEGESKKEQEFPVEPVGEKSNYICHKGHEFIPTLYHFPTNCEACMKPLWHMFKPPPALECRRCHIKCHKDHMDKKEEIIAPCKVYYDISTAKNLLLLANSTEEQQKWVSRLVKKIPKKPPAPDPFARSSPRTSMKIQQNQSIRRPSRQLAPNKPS
ROCK1, sequence (Q13464 whole entry): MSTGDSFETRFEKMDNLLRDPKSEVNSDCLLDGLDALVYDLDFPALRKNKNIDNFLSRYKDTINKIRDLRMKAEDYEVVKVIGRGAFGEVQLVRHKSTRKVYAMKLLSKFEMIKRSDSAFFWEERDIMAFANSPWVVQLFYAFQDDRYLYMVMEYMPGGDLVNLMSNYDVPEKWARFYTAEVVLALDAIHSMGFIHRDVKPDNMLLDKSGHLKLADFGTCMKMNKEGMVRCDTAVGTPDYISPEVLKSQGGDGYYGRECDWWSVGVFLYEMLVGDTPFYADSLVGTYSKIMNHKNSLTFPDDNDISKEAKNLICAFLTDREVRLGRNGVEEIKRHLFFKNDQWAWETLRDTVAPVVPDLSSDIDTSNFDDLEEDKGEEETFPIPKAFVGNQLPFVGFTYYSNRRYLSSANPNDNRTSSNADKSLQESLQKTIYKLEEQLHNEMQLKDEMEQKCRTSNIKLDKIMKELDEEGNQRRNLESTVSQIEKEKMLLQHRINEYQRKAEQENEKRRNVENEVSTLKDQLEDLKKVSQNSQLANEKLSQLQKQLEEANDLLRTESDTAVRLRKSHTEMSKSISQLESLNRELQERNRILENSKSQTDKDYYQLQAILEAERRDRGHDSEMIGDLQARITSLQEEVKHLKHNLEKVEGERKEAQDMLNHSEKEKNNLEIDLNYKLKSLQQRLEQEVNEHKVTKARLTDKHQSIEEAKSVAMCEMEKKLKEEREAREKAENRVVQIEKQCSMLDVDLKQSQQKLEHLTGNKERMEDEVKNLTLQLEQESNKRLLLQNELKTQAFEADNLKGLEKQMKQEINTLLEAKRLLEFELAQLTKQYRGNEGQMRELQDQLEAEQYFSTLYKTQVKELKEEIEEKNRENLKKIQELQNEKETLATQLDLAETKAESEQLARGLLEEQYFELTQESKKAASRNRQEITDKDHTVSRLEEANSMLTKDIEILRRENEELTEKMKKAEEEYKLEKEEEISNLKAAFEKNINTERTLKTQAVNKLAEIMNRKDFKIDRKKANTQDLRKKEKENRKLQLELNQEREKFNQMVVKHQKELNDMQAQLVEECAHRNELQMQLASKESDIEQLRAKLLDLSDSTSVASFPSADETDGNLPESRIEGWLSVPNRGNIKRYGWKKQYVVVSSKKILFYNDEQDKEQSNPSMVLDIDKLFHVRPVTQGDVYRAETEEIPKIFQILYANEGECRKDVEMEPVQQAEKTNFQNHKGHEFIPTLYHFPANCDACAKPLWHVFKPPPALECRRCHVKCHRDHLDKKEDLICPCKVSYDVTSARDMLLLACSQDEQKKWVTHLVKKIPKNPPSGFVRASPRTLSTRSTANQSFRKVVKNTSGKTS

In the case of `CN1CCC(NC(=O)c2cccc(CNc3ncc(-c4ccnc(N)n4)c4c3CCO4)c2)CC1` [Example 13, 3-(((7-(2-Aminopyrimidin-4-yl)-2,3-dihydrofuro[3,2-c]pyridin-4-yl)amino)methyl)-N-(1-methylpiperidin-4-yl)benzamide], the negative logarithm of the Ki (pKi) at ROCK1 and at ROCK2 was ≥ 8.52 in each case. Besides, the “Ratio (PKA/ROCK2)” value at PKA is “*** (ratio≥10)”.
Turning to `Nc1nccc(-c2cnc(NCc3cccc(C(=O)NCCCOC(F)F)c3)c3c2OCC3)n1` [Example 14, 3-(((7-(2-Aminopyrimidin-4-yl)-2,3-dihydrofuro[3,2-c]pyridin-4-yl)amino)methyl)-N-(3-(difluoromethoxy)propyl)benzamide], the pKi at ROCK1 and on ROCK2 was ≥ 8.52 each time. Moreover, on PKA, the “Ratio (PKA/ROCK2)” value is reported as “*** (ratio≥10)”.
Take `CC(C)OCCCNC(=O)c1cccc(CNc2ncc(-c3ccnc(N)n3)c3c2CCO3)c1` [Example 15, 3-(((7-(2-Aminopyrimidin-4-yl)-2,3-dihydrofuro[3,2-c]pyridin-4-yl)amino)methyl)-N-(3-isopropoxypropyl)benzamide]: the negative-log Ki (pKi) on ROCK1 and on ROCK2 was ≥ 8.52 in each case. For the same compound, the “Ratio (PKA/ROCK2)” value at PKA is given as “*** (ratio≥10)”.
As to `Nc1nccc(-c2cnc(NCc3cccc(C(=O)NCCCN4CCOCC4)c3)c3c2OCC3)n1` [Example 16, 3-(((7-(2-Aminopyrimidin-4-yl)-2,3-dihydrofuro[3,2-c]pyridin-4-yl)amino)methyl)-N-(3-morpholinopropyl)benzamide], the negative-log Ki (pKi) at ROCK1 and at ROCK2 was ≥ 8.52 throughout. Besides, on PKA, the “Ratio (PKA/ROCK2)” value was “*** (ratio≥10)”.
As for `CC(C)(O)CNC(=O)c1cccc(CNc2ncc(-c3ccnc(N)n3)c3c2CCO3)c1` [Example 17, 3-(((7-(2-Aminopyrimidin-4-yl)-2,3-dihydrofuro[3,2-c]pyridin-4-yl)amino)methyl)-N-(2-hydroxy-2-methylpropyl)benzamide], the pKi at ROCK1 and at ROCK2 was ≥ 8.52 each time. The “Ratio (PKA/ROCK2)” value at PKA was “*** (ratio≥10)”.
As to `CO[C@H]1C[C@@H](NC(=O)c2cccc(CNc3ncc(-c4ccnc(N)n4)c4c3CCO4)c2)C1` [Example 18, 3-(((7-(2-aminopyrimidin-4-yl)-2,3-dihydrofuro[3,2-c]pyridin-4-yl)amino)methyl)-N-((1s,3s)-3-methoxycyclobutyl)benzamide], the negative-log Ki (pKi) on ROCK1 and on ROCK2 was ≥ 8.52 each time. In addition, the “Ratio (PKA/ROCK2)” value on PKA was “*** (ratio≥10)”.
In the case of `C[C@@H]1CCC[C@H](C)N1CCNC(=O)c1cccc(CNc2ncc(-c3ccnc(N)n3)c3c2CCO3)c1` [Example 19, 3-(((7-(2-Aminopyrimidin-4-yl)-2,3-dihydrofuro[3,2-c]pyridin-4-yl)amino)methyl)-N-(2-((2R,6S)-2,6-dimethylpiperidin-1-yl)ethyl)benzamide], the negative logarithm of the Ki (pKi) at ROCK1 and at ROCK2 was ≥ 8.52 each time. Besides, on PKA, the “Ratio (PKA/ROCK2)” value was “*** (ratio≥10)”.
As to `CCOCCNC(=O)c1cccc(CNc2ncc(-c3ccnc(N)n3)c3c2CCO3)c1` [Example 20, 3-(((7-(2-Aminopyrimidin-4-yl)-2,3-dihydrofuro[3,2-c]pyridin-4-yl)amino)methyl)-N-(2-ethoxyethyl)benzamide], the pKi at ROCK1 and on ROCK2 was ≥ 8.52 throughout. At PKA, the “Ratio (PKA/ROCK2)” value is reported as “*** (ratio≥10)”.
As for `CNC(=O)c1cccc(CNc2ncc(-c3ccnc(N)n3)c3c2CCO3)c1` [Example 21, 3-(((7-(2-Aminopyrimidin-4-yl)-2,3-dihydrofuro[3,2-c]pyridin-4-yl)amino)methyl)-N-methylbenzamide], the pKi (in general, the Ki on a negative log10 scale, so that one unit is a factor of ten) at ROCK1 was 7.52 to 8.52; on ROCK2 it was ≥ 8.52. Besides, the “Ratio (PKA/ROCK2)” value on PKA is reported as “*** (ratio≥10)”.
In the case of `CC1(NC(=O)c2cccc(CNc3ncc(-c4ccnc(N)n4)c4c3CCO4)c2)CC1` [Example 22, 3-(((7-(2-Aminopyrimidin-4-yl)-2,3-dihydrofuro[3,2-c]pyridin-4-yl)amino)methyl)-N-(1-methylcyclopropyl)benzamide], the pKi on ROCK1 and at ROCK2 was 7.52 to 8.52 in each case. Further, the “Ratio (PKA/ROCK2)” value at PKA is “** (5≤ratio<10)”.
Consider `Nc1nccc(-c2cnc(NCc3cccc(C(=O)N[C@H]4[C@@H]5COC[C@@H]54)c3)c3c2OCC3)n1` [Example 23, 3-(((7-(2-Aminopyrimidin-4-yl)-2,3-dihydrofuro[3,2-c]pyridin-4-yl)amino)methyl)-N-((1R,5S,6r)-3-oxabicyclo[3.1.0]hexan-6-yl)benzamide], for which the negative logarithm of the Ki (pKi) on ROCK1 and at ROCK2 was ≥ 8.52 in each case. Further, the “Ratio (PKA/ROCK2)” value on PKA was “*** (ratio≥10)”.
For the compound `Nc1nccc(-c2cnc(NCc3cccc(C(=O)NC4CN(C5COC5)C4)c3)c3c2OCC3)n1` [Example 24, 3-(((7-(2-aminopyrimidin-4-yl)-2,3-dihydrofuro[3,2-c]pyridin-4-yl)amino)methyl)-N-(1-(oxetan-3-yl)azetidin-3-yl)benzamide], the pKi on ROCK1 and at ROCK2 was ≥ 8.52 each time. In addition, the “Ratio (PKA/ROCK2)” value at PKA is given as “*** (ratio≥10)”.
For `Nc1nccc(-c2cnc(NCc3cccc(C(=O)NCC4CC4)c3)c3c2OCC3)n1` [Example 25, 3-(((7-(2-Aminopyrimidin-4-yl)-2,3-dihydrofuro[3,2-c]pyridin-4-yl)amino)methyl)-N-(cyclopropylmethyl)benzamide], the negative logarithm of the Ki (pKi) at ROCK1 and on ROCK2 was ≥ 8.52 in each case. For the same compound, the “Ratio (PKA/ROCK2)” value at PKA is reported as “*** (ratio≥10)”.
With `Nc1nccc(-c2cnc(NCc3cccc(C(=O)N[C@H]4C[C@@H](OC(F)F)C4)c3)c3c2OCC3)n1` [Example 26, 3-(((7-(2-aminopyrimidin-4-yl)-2,3-dihydrofuro[3,2-c]pyridin-4-yl)amino)methyl)-N-((1s,3s)-3-(difluoromethoxy)cyclobutyl)benzamide], the pKi at ROCK1 and on ROCK2 was ≥ 8.52 each time. On PKA, the “Ratio (PKA/ROCK2)” value was “*** (ratio≥10)”.
Turning to `COC(C)(C)CNC(=O)c1cccc(CNc2ncc(-c3ccnc(N)n3)c3c2CCO3)c1` [Example 27, 3-(((7-(2-Aminopyrimidin-4-yl)-2,3-dihydrofuro[3,2-c]pyridin-4-yl)amino)methyl)-N-(2-methoxy-2-methylpropyl)benzamide], the negative-log Ki (pKi) on ROCK1 and at ROCK2 was ≥ 8.52 throughout. For the same compound, the “Ratio (PKA/ROCK2)” value on PKA is “*** (ratio≥10)”.
Take `COCC1(CNC(=O)c2cccc(CNc3ncc(-c4ccnc(N)n4)c4c3CCO4)c2)CC1` [Example 28, 3-(((7-(2-Aminopyrimidin-4-yl)-2,3-dihydrofuro[3,2-c]pyridin-4-yl)amino)methyl)-N-((1-(methoxymethyl)cyclopropyl)methyl)benzamide]: the values for the pKi on ROCK1 and on ROCK2 were 7.52 to 8.52 and ≥ 8.52, respectively. For the same compound, the “Ratio (PKA/ROCK2)” value at PKA is reported as “*** (ratio≥10)”.
`Nc1nccc(-c2cnc(NCc3cccc(C(=O)NCCCF)c3)c3c2OCC3)n1` [Example 29, 3-(((7-(2-Aminopyrimidin-4-yl)-2,3-dihydrofuro[3,2-c]pyridin-4-yl)amino)methyl)-N-(3-fluoropropyl)benzamide]: the pKi at ROCK1 and on ROCK2 was ≥ 8.52 throughout. Also, the “Ratio (PKA/ROCK2)” value at PKA was “*** (ratio≥10)”.
